# Laboratory results reported in US10945992B1, “Dosage forms of rofecoxib and related methods” (Tremeau Pharmaceuticals, Inc., priority 2019, dated 2021).
# Read-outs that look alike come from different tables or passages of the source.
# Assay: TRM-201-PK-102 single-dose four-period crossover pharmacokinetic study, fasted healthy subjects
# Format: in vivo, human
# Conditions: human, plasma, oral
# Protocol: A Single-Dose, Open-Label, Phase 1, Four-Period Crossover Pharmacokinetic Study of TRM-201 (Rofecoxib) 12.5 mg, 17.5 mg, 20 mg and 25 mg Administered to Healthy Subjects in a Fasting State, with Comparison to Historical Pharmacokinetic Parameters of Previously Marketed Rofecoxib (“TRM-201-PK-102” or “102 PK Study”)
# This was a single-center, open-label four-period crossover PK study of TRM-201. The study included 24 subjects who received TRM-201 as a single dose of 12.5 mg, 17.5 mg, 20 mg and 25 mg to assess the PK of TRM-201 in healthy volunteers under fasted conditions. Subjects were randomized to one of four treatment sequences. The PK data from the current study along with the data from the TRM-201-PK-101 study (Example 4) was used to compare to historical pharmacokinetic parameters of previously marketed rofecoxib, all in a fasted state.
# In each of the four dosing periods, subjects fasted overnight for at least 10 hours before study drug dosing. While fasting, subjects had nothing to eat and only water to drink. Water was permitted as desired, except for the period between 1 hour before and 1 hour after study drug dosing (excepting as permitted for dosing). After the 2-hour PK blood sample, subjects were allowed one 250-mL cup of clear apple juice. After the 4-hour PK blood sample, subjects were served a light lunch. Following the light lunch, subjects received standardized meals according to the clinic's standard procedures that were scheduled at consistent times and at least 15 minutes before or 15 minutes after PK sampling time points. Blood was withdrawn for PK analysis at predefined time points. For each dosing period the last time point was 120 hours after dosing with study drug (Day 6). After the 120 hour PK sample, the EOP procedures was completed, subjects remained in-clinic for the in-between dose period day (Days 7, 14, and 21) and began the next dosing period starting with an overnight fast for at least 10 hours on Day −1 of the subsequent dosing period. Pharmacokinetic and safety endpoints were evaluated.
# The study drug, TRM-201, was an immediate-release tablet that contained 12.5 mg rofecoxib, 17.5 mg rofecoxib, 20 mg rofecoxib or 25 mg rofecoxib. The 7.25-mm diameter tablets were off-white, round, and uncoated with no markings. TRM-201 tablets were for oral administration.
# For each sample, approximately 3 mL of blood were drawn. The samples were obtained by a straight stick or via an in-dwelling intravenous (IV) catheter in a forearm vein. Additional details for the collection, processing, storage, and shipping of PK samples were provided in the study manual.
# Pharmacokinetic samples will be analyzed using a validated assay for rofecoxib in human plasma. Assay results and validation details will be provided in a separate bioanalytical report. The following PK parameters for rofecoxib will be calculated as primary endpoints using standard noncompartmental methods: AUC0-∞ and Cmax. Secondary endpoints include Tmax, and t1/2. Additional PK parameters (e.g., CL/F, and Vd/F) will also be calculated using standard noncompartmental methods.
# Individual plasma concentrations for rofecoxib and PK sampling time deviation data will be presented in a data listing. Plasma concentration data will be summarized by time point using the following descriptive statistics: number of subjects, arithmetic mean, SD, coefficient of variation (CV), geometric mean, natural-log-scale SD, geometric CV, median, minimum, and maximum. Individual plasma concentration versus actual time profiles were presented on both linear and semilogarithmic scales. Additionally, arithmetic mean concentration versus scheduled time profiles were presented on linear scales and geometric means on semilogarithmic scales.
# The PK parameters of rofecoxib were analyzed based on the actual sampling times. […]
# [1] = 12.5 mg, read-out: arithmetic mean plasma concentration
# [2] = 12.5 mg, read-out: geometric mean plasma concentration
# [3] = 17.5 mg, read-out: geometric mean plasma concentration
structure (smiles),measurement,setting,value
"CS(=O)(=O)c1ccc(C2=C(c3ccccc3)C(=O)OC2)cc1 [TRM-201, 4-[4-(methylsulfonyl)phenyl]-3-phenyl-2(5H)-furanone]",Cmax,"12.5 mg, 102 study, body weight 77.1-90 kg, read-out: arithmetic mean Cmax",127 ng/mL
same,AUC(0-inf),"12.5 mg, 102 study, body weight 77.1-90 kg, read-out: geometric mean AUC0-∞",1690 ng·h/mL
same,Cmax,"12.5 mg, 102 study, body weight 77.1-90 kg, read-out: geometric mean Cmax",125 ng/mL
same,AUC(0-inf),"12.5 mg, 102 study, non-Hispanic or non-Latino subjects, read-out: arithmetic mean AUC0-∞",1820 ng·h/mL
same,Cmax,"12.5 mg, 102 study, non-Hispanic or non-Latino subjects, read-out: arithmetic mean Cmax",146 ng/mL
same,AUC(0-inf),"12.5 mg, 102 study, non-Hispanic or non-Latino subjects, read-out: geometric mean AUC0-∞",1680 ng·h/mL
same,Cmax,"12.5 mg, 102 study, non-Hispanic or non-Latino subjects, read-out: geometric mean Cmax",141 ng/mL
same,concentration at 15 minutes,[1],1.03 ng/mL
same,concentration at 15 minutes,[2],0.529 ng/mL
same,concentration at 45 minutes,[1],56.8 ng/mL
same,concentration at 45 minutes,[2],33.9 ng/mL
same,AUC(0-inf),"17.5 mg, 102 study only, read-out: arithmetic mean AUC0-∞",3290 ng·h/mL
same,Cmax,"17.5 mg, 102 study only, read-out: arithmetic mean Cmax",236 ng/mL
same,AUC(0-inf),"17.5 mg, 102 study only, read-out: geometric mean AUC0-∞",3110 ng·h/mL
same,Cmax,"17.5 mg, 102 study only, read-out: geometric mean Cmax",224 ng/mL
same,AUC(0-inf),"17.5 mg, 102 study, 18-40 years, read-out: arithmetic mean AUC0-∞",2820 ng·h/mL
same,Cmax,"17.5 mg, 102 study, 18-40 years, read-out: arithmetic mean Cmax",237 ng/mL
same,AUC(0-inf),"17.5 mg, 102 study, 18-40 years, read-out: geometric mean AUC0-∞",2750 ng·h/mL
same,Cmax,"17.5 mg, 102 study, 18-40 years, read-out: geometric mean Cmax",229 ng/mL
same,AUC(0-inf),"17.5 mg, 102 study, 41-52 years, read-out: arithmetic mean AUC0-∞",3520 ng·h/mL
same,Cmax,"17.5 mg, 102 study, 41-52 years, read-out: arithmetic mean Cmax",232 ng/mL
same,AUC(0-inf),"17.5 mg, 102 study, 41-52 years, read-out: geometric mean AUC0-∞",3160 ng·h/mL
same,Cmax,"17.5 mg, 102 study, 41-52 years, read-out: geometric mean Cmax",213 ng/mL
same,AUC(0-inf),"17.5 mg, 102 study, 53-60 years, read-out: arithmetic mean AUC0-∞",3510 ng·h/mL
same,Cmax,"17.5 mg, 102 study, 53-60 years, read-out: arithmetic mean Cmax",239 ng/mL
same,AUC(0-inf),"17.5 mg, 102 study, 53-60 years, read-out: geometric mean AUC0-∞",3470 ng·h/mL
same,Cmax,"17.5 mg, 102 study, 53-60 years, read-out: geometric mean Cmax",230 ng/mL
same,AUC(0-inf),"17.5 mg, 102 study, Black or African-American subjects, read-out: arithmetic mean AUC0-∞",2840 ng·h/mL
same,Cmax,"17.5 mg, 102 study, Black or African-American subjects, read-out: arithmetic mean Cmax",217 ng/mL
same,AUC(0-inf),"17.5 mg, 102 study, Black or African-American subjects, read-out: geometric mean AUC0-∞",2800 ng·h/mL
same,Cmax,"17.5 mg, 102 study, Black or African-American subjects, read-out: geometric mean Cmax",211 ng/mL
same,AUC(0-inf),"17.5 mg, 102 study, Hispanic or Latino subjects, read-out: arithmetic mean AUC0-∞",3520 ng·h/mL
same,Cmax,"17.5 mg, 102 study, Hispanic or Latino subjects, read-out: arithmetic mean Cmax",258 ng/mL
same,AUC(0-inf),"17.5 mg, 102 study, Hispanic or Latino subjects, read-out: geometric mean AUC0-∞",3330 ng·h/mL
same,Cmax,"17.5 mg, 102 study, Hispanic or Latino subjects, read-out: geometric mean Cmax",243 ng/mL
same,AUC(0-inf),"17.5 mg, 102 study, White subjects, read-out: arithmetic mean AUC0-∞",3400 ng·h/mL
same,Cmax,"17.5 mg, 102 study, White subjects, read-out: arithmetic mean Cmax",241 ng/mL
same,AUC(0-inf),"17.5 mg, 102 study, White subjects, read-out: geometric mean AUC0-∞",3200 ng·h/mL
same,Cmax,"17.5 mg, 102 study, White subjects, read-out: geometric mean Cmax",228 ng/mL
same,AUC(0-inf),"17.5 mg, 102 study, body weight 47-70 kg, read-out: arithmetic mean AUC0-∞",3180 ng·h/mL
same,Cmax,"17.5 mg, 102 study, body weight 47-70 kg, read-out: arithmetic mean Cmax",261 ng/mL
same,AUC(0-inf),"17.5 mg, 102 study, body weight 47-70 kg, read-out: geometric mean AUC0-∞",2930 ng·h/mL
same,Cmax,"17.5 mg, 102 study, body weight 47-70 kg, read-out: geometric mean Cmax",242 ng/mL
same,AUC(0-inf),"17.5 mg, 102 study, body weight 70.1-77 kg, read-out: arithmetic mean AUC0-∞",3890 ng·h/mL
same,Cmax,"17.5 mg, 102 study, body weight 70.1-77 kg, read-out: arithmetic mean Cmax",254 ng/mL
same,AUC(0-inf),"17.5 mg, 102 study, body weight 70.1-77 kg, read-out: geometric mean AUC0-∞",3730 ng·h/mL
same,Cmax,"17.5 mg, 102 study, body weight 70.1-77 kg, read-out: geometric mean Cmax",246 ng/mL
same,AUC(0-inf),"17.5 mg, 102 study, body weight 77.1-90 kg, read-out: arithmetic mean AUC0-∞",2910 ng·h/mL
same,Cmax,"17.5 mg, 102 study, body weight 77.1-90 kg, read-out: arithmetic mean Cmax",200 ng/mL
same,AUC(0-inf),"17.5 mg, 102 study, body weight 77.1-90 kg, read-out: geometric mean AUC0-∞",2850 ng·h/mL
same,Cmax,"17.5 mg, 102 study, body weight 77.1-90 kg, read-out: geometric mean Cmax",194 ng/mL
same,AUC(0-inf),"17.5 mg, 102 study, non-Hispanic or non-Latino subjects, read-out: arithmetic mean AUC0-∞",3050 ng·h/mL
same,Cmax,"17.5 mg, 102 study, non-Hispanic or non-Latino subjects, read-out: arithmetic mean Cmax",214 ng/mL
same,AUC(0-inf),"17.5 mg, 102 study, non-Hispanic or non-Latino subjects, read-out: geometric mean AUC0-∞",2910 ng·h/mL
same,Cmax,"17.5 mg, 102 study, non-Hispanic or non-Latino subjects, read-out: geometric mean Cmax",207 ng/mL
same,concentration at 15 minutes,[3],0.669 ng/mL
same,concentration at 45 minutes,[3],51.6 ng/mL
